The values that follow come from a melting point compilation (Tetko et al.).

What is called melting point is the temperature, or range, at which the solid turns liquid. As for `O=C(CCl)N1N=C(c2cc3ccccc3o2)CC1c1ccco1` (stereo not given), the melting point fell in the range of 165 to 167 °C. In turn, `CC(C)Nc1ccc(C(=O)O)cn1` registered a melting point of 249 to 251 °C. The same measure for `ClCc1nnnn1-c1ccccc1Br`: 45 to 47 °C; for `Cc1ccc(C=CCC(=O)O)cc1`: 105 to 107 °C; for `COc1ccc(S(=O)(=O)CC(C)C(=O)O)cc1` (stereo not given): 116 to 118 °C. Next, `FC(F)(F)c1ccnc(N2CCNCC2)n1`: 49 to 51 °C; `Cc1cc(C=O)c(C)n1-c1cccc(C(F)(F)F)c1`: 103 to 105 °C. In the case of `O=C(O)C1CCS(=O)(=O)CC1`, the melting point lay in the range of 184 to 186 °C.

Consider `Cc1ccc(F)cc1Nc1ncc(C(=O)O)cc1Cl`, for which the melting point was in the range of 209 to 211 °C.

`O=C(O)c1cc(Br)cc2ccccc12`: the melting point was 229 to 231 °C.

Turning to `COc1ccc(Br)cc1C(N)=S`, the melting point was in the range of 143 to 145 °C. Take `Cc1nn(-c2ccccc2)c(C(F)(F)Cl)c1C(=O)O`: the melting point lay in the range of 144 to 146 °C. The same measure for `O=C(O)CNS(=O)(=O)c1ccc(Cl)c([N+](=O)[O-])c1`: 150 to 152 °C; for `O=c1c(Cl)c(Cl)cnn1-c1cccc(C(F)(F)F)c1`: 92 to 94 °C; for `CCc1c(-c2ccc(Br)cc2)n[nH]c1N`: 94 to 96 °C. `CS(=O)(=O)c1cc(C#N)ccn1` yielded a melting point of 143 to 145 °C. With `COc1ccc(S(=O)(=O)Nc2cccc(CN)c2)cc1`, the melting point lay in the range of 125 to 127 °C. Consider `CCOC(=O)CNc1ccccc1-c1ccccc1`, for which the melting point lay within 53 to 55 °C.

As to `ClCc1nc2cccnc2s1`, the melting point lay in the range of 65 to 67 °C. `O=C(O)c1ccc(-c2ccccc2F)o1` displayed a melting point of 173 to 175 °C. Consider `COC(=O)c1cnc(NC2CC2)s1`, for which the melting point was 157 to 159 °C. Consider `NNc1ccc(-c2ccccc2)nn1`, for which the melting point fell in the range of 144 to 146 °C. The compound `O=C1NCCCc2cc(O)ccc21` displayed a melting point of 219 to 221 °C. With `O=C(O)CCOc1ccc(F)c(Cl)c1`, the melting point lay within 82 to 84 °C. `O=C(O)CNC(=O)c1ccc(C(F)(F)F)cc1` yielded a melting point of 154 to 156 °C. On to `COc1ccc(Cn2ncc(C)c2N)cc1OC`, for which the melting point is 98 to 100 °C. `Clc1cc(Cl)c2c(n1)NCC2`: the melting point lay within 149 to 151 °C. The compound `O=C(O)c1cc(Cl)cc(Br)c1O` registered a melting point of 214 to 216 °C. In the case of `C#Cc1cccc(NC(=O)NC(=O)CCl)c1`, the melting point lay within 185 to 187 °C.

As to `COc1ccccc1-c1nnc(S)o1`, the melting point is 243 to 245 °C. `COc1ccc(C(=O)O)c(Br)c1` returned a melting point of 189 to 191 °C.

On to `ClCc1nnc(-c2ccccc2Br)o1`, for which the melting point is 104 to 107 °C.

In turn, `CC(C)C(Br)C(=O)Nc1ccccc1Cl` (stereo not given) returned a melting point of 114 to 116 °C. `CC(C)(C)Nc1ccc(C(N)=NO)nc1` displayed a melting point of 139 to 141 °C. `COc1ccc2c(-c3ccccc3)cc(S)nc2c1` yielded a melting point of 180 to 182 °C. The same measure for `CCOC(=O)c1nnc(C)n1C1CC1`: 109 to 111 °C; for `CC(OCc1ccccc1)C(=O)O` (stereo not given): 51 to 53 °C; for `CCOC(=O)CSc1nnc(-c2cccs2)o1`: 53 to 55 °C. As for `CC1(C2CCCCC2)NC(=O)NC1=O` (stereo not given), the melting point fell in the range of 113 to 115 °C.

Consider `Cn1ccnc1C(=O)c1ccncc1`, for which the melting point was 138 to 140 °C. For the compound `CC(N)c1cccc(N2CCCS2(=O)=O)c1` (stereo not given), the melting point lay within 60 to 62 °C. `O=[N+]([O-])c1cc(S(=O)(=O)Cl)ccc1O` yielded a melting point of 52 to 54 °C. Consider `c1ccc2cc(CN3CCNCC3)ccc2c1`, for which the melting point lay within 53 to 55 °C. In turn, `O=C(O)CN1C(=O)NC2(CCCC2)C1=O` came in with a melting point of 165 to 167 °C. In the case of `O=C1CCc2cc(C(=O)CCl)ccc2N1`, the melting point lay in the range of 212 to 214 °C. Regarding `Cc1cc(Cl)c2cc(Cl)cc(C)c2n1`, the melting point was in the range of 122 to 124 °C. Turning to `O=C(O)CCNC(=O)c1cnccn1`, the melting point fell in the range of 55 to 57 °C.

In turn, `O=C(Nc1cccc(F)c1)C1CSCN1` (stereo not given) yielded a melting point of 222 to 224 °C.

`CCOc1cc(C(N)=NO)cc(Br)c1O` yielded a melting point of 157 to 159 °C. Next, `COC(=O)c1c[nH]c2cccc(F)c12`: 159 to 161 °C. As for `CC(NC(=O)c1ccc(Br)s1)C(=O)O` (stereo not given), the melting point was 135 to 137 °C. In turn, `C#Cc1cnc2ccccc2n1` returned a melting point of 99 to 101 °C. Consider `COCc1nc(CC(=O)O)cs1`, for which the melting point is 59 to 61 °C. Take `CC1Cc2cc(S(N)(=O)=O)cc(Cl)c2O1` (stereo not given): the melting point was in the range of 174 to 176 °C. As for `CS(=O)(=O)c1ccc2c(c1)NCCO2`, the melting point was in the range of 117 to 119 °C.

Compound `Cc1ccc(O)c(C(=O)NCC(C)C)c1` came in with a melting point of 51 to 53 °C. In the case of `Cc1nn(-c2ccccc2F)c(C)c1CC(=O)O`, the melting point lay in the range of 174 to 176 °C. The same measure for `CCN(CC)S(=O)(=O)c1cc(C(=O)O)ccc1C`: 142 to 144 °C. With `CCOC(=O)C1=C(CCl)NC(=O)NC1c1ccc(OC)cc1` (stereo not given), the melting point lay within 169 to 171 °C.

For `CCS(=O)(=O)NCc1ccc(C(=O)O)cc1`, the melting point is 194 to 196 °C. The same measure for `CC(=O)NC(CC(=O)O)c1ccc(F)cc1F` (stereo not given): 149 to 151 °C. Consider `CC(C)(C)OC(=O)NCC1CCCC1N` (stereo not given), for which the melting point lay in the range of 43 to 45 °C. Next, `Cc1ccc(C(=O)NCCN)cc1F`: 71 to 73 °C; `O=C(O)c1cccc(=O)n1CCOc1ccccc1Cl`: 118 to 120 °C.

With `Nc1ccc(S(=O)(=O)C(F)(F)F)cc1N`, the melting point is 109 to 111 °C. `Cc1ccc2c(C3CCNCC3)c[nH]c2c1` returned a melting point of 176 to 178 °C. As to `O=C(O)C1=NC=CN2CCS(=O)(=O)N=C12`, the melting point lay within 183 to 187 °C. For the compound `CC(=O)N1CCN(c2ccccc2C=O)CC1`, the melting point lay in the range of 86 to 88 °C. Compound `CC(=O)c1c(C)nn(C(C)C)c1C` displayed a melting point of 74 to 76 °C. `CC1(c2cccs2)NC(=O)NC1=O` (stereo not given): the melting point lay within 137 to 139 °C. `N#Cc1ccc(-c2ccncc2)[nH]c1=O` had a melting point of 339 to 341 °C. `O=c1[nH]c(S)nc2cc(Cl)ccc12` had a melting point of 306 to 308 °C. `Nc1ccc(S(=O)(=O)Nc2cccc(Cl)c2)cc1` registered a melting point of 132 to 134 °C. The same measure for `O=c1[nH]ccc2cc[nH]c12`: 279 to 281 °C; for `C=CCn1c(S)nc2ccccc21`: 109 to 111 °C; for `Cc1n[nH]c(C)c1S(=O)(=O)N1CCOCC1`: 82 to 83 °C. In turn, `Nc1ccc(Cc2nnn[nH]2)cc1` had a melting point of 174 to 176 °C. Next, `CCCC(=O)N1CCCC1C(=O)O` (stereo not given): 115 to 117 °C; `Cc1nn(CC(F)(F)F)c(C)c1C(C)C(=O)O` (stereo not given): 130 to 132 °C; `O=C(O)CNC(=O)c1cc(-c2ccccc2)on1`: 208 to 210 °C. In turn, `NCc1cccnc1N1CCC(C(N)=O)CC1` registered a melting point of 129 to 131 °C. Regarding `NC(=O)CCCl`, the melting point is 142 to 144 °C. Turning to `CC(C)CC1NC(=O)NC1=O` (stereo not given), the melting point lay in the range of 215 to 217 °C. The same measure for `Cc1ccc(N2C(=O)CC(C(=O)O)C2c2cccs2)cc1` (stereo not given): 175 to 177 °C; for `CC(C)(C)OC(=O)Nc1ccncc1C=O`: 62 to 64 °C; for `O=S1(=O)N=C2CCCCCN2C(c2ccncc2)N1` (stereo not given): 176 to 178 °C. The same measure for `CC(C)c1noc2nc(-c3ccco3)cc(C(=O)O)c12`: 224 to 226 °C; for `CN(C)c1ccnc(N)c1`: 113 to 115 °C; for `Cc1ccsc1C(=O)c1ccc(Cl)cc1F`: 39 to 41 °C.

In turn, `CCN(CC)S(=O)(=O)c1cccc(C(=O)NCC(=O)O)c1` displayed a melting point of 69 to 71 °C.

With `Cc1cc(CN)cc(C)c1O`, the melting point was in the range of 99 to 101 °C.

In the case of `N#CC1(C(=O)O)CCC1`, the melting point is 64 to 66 °C. The compound `N#Cc1cc(-c2ccccc2)sc1N` had a melting point of 190 to 192 °C. `CC(Cl)C(=O)N1CCN(c2ncccn2)CC1` (stereo not given) yielded a melting point of 96 to 98 °C. The compound `CC(C)(C)OC(=O)NC1CCCN(Cc2ccccc2)C1` (stereo not given) registered a melting point of 118 to 120 °C.

The compound `CC(=CC(=O)O)c1cccc(Cl)c1` returned a melting point of 156 to 158 °C. Consider `O=C(O)CCNc1ncc(C(F)(F)F)cc1Cl`, for which the melting point lay in the range of 131 to 133 °C.

With `O=C(CCl)Nc1cc2ccccc2cc1C(=O)O`, the melting point was in the range of 223 to 225 °C. The compound `Cc1ccccc1Nc1nnc(S)s1` yielded a melting point of 230 to 232 °C. The compound `CCOC(=O)COc1ccc(O)cc1` returned a melting point of 121 to 123 °C. Turning to `CCOC(=O)c1cnn(C)c1-c1ccccc1`, the melting point fell in the range of 59 to 61 °C. In turn, `Cc1[nH]c2ccccc2c1C(=O)C(C)Cl` (stereo not given) gave a melting point of 133 to 135 °C. `COc1ccc(C(C)=O)cc1CS(=O)CC(=O)O` (stereo not given) gave a melting point of 93 to 95 °C. The same measure for `CC(C)NC(=O)N(C)c1ccc(O)cc1`: 158 to 160 °C; for `Cc1ccn(-c2cccc(C(=O)O)c2)n1`: 198 to 200 °C; for `CCN(CC)S(=O)(=O)c1ccc(C(=O)CBr)cc1`: 79 to 81 °C. For `O=C(O)CCC(=O)c1ccc(S(=O)(=O)Cl)cc1`, the melting point is 126 to 128 °C. Consider `COc1ccc(C)cc1Nc1nnc(S)s1`, for which the melting point lay within 210 to 212 °C. Compound `Cc1cc(C(=O)O)c2c(C)nn(C)c2n1` showed a melting point of 262 to 264 °C.

On to `COc1ccc(-c2nc(N)cc(=O)[nH]2)cc1`, for which the melting point fell in the range of 271 to 273 °C. In the case of `Nc1cncc(Cl)c1Cl`, the melting point is 97 to 99 °C. In turn, `Cc1ccc(S(=O)(=O)NCCCN(C)C)cc1C(=O)O` had a melting point of 229 to 231 °C.

The compound `CS(=O)(=O)N1CCCc2cc(C(=O)O)ccc21` yielded a melting point of 218 to 220 °C. As for `FC(F)n1ccnc1COc1ccc(Br)cc1`, the melting point lay in the range of 61 to 63 °C. Regarding `Cc1cc(N)n(C2CCOC2)n1` (stereo not given), the melting point was 91 to 93 °C.

`O=C(O)Cc1ccc(S(=O)(=O)C(F)F)cc1` gave a melting point of 139 to 141 °C.

For `COc1ccc2c(c1)c(C(=O)O)c(C)n2C1CC1`, the melting point is 199 to 201 °C. In turn, `Cn1cc(-c2ccc(F)c(C(=O)O)c2)cn1` had a melting point of 208 to 210 °C. In turn, `CCN(CC)S(=O)(=O)c1ccc(Br)c(C(=O)O)c1` returned a melting point of 141 to 145 °C. `C=CCn1c(S)nc2cc3ccccc3cc2c1=O` returned a melting point of 285 to 287 °C.
